Laboratory results published in patent US9718810B2, “Solid state forms of a quinazoline derivative and its use as a BRAF inhibitor” (Ignyta, Inc., priority 2013, dated 2017).
Read-outs that look alike come from different tables or passages of the source.

Experiments:
[1] = Gravimetric vapor sorption (GVS); format: physicochemical; settings: for XRPD after GVS analysis: form change after GVS cycles; for hygroscopicity: adsorption and desorption curves overlap
Procedure: GVS experiments have been carried out using the DVS-HT instrument (Surface Measurement Systems, London, UK). This instrument measures the uptake and loss of vapor gravimetrically using a recording ultra-microbalance with a mass resolution of ±0.1 μg. The vapor partial pressure (±1.0%) around the sample is controlled by mixing saturated and dry carrier gas streams using electronic mass flow controllers. The desired temperature is maintained at ±0.1° C. The samples (1-10 mg) were placed into the DVSHT and DVS-1 instruments at the desired temperature. The sample was loaded and unloaded at 40% RH and 25° C. (typical room conditions). A moisture sorption isotherm was performed as outlined below (2 scans giving 1 complete cycle). The software uses a least squares minimization procedure together with a model of the mass relaxation, to predict an asymptotic value. The measured mass equilibration value must be within 2% of that predicted by the software before the next % RH value is selected. The minimum equilibration time was set to 1 hour and the maximum to 4 hours.

[2] = Solid-state stress stability at 40° C./75% RH; format: physicochemical; settings: for Area Purity / HPLC Assay / XRPD: 40° C./75% RH; for solid state stability: 40° C./75% relative humidity without desiccant
Procedure: Typically 1-5 mg of samples were diluted to 10 mL with sample solvent (1:1 (v:v) Mobile phase A:Mobile phase B) and the assay concentrations were determined from an average of duplicate injections using the following HPLC method. The purity and impurity analyses are done using conventional HPLC. Samples of Compound I free base and its salts (approximately 10 mg each) were stored at 40° C./75% RH in open glass vials (4 cm^3) over four weeks without desiccant. Stress stability studies were performed to get a timely impression of the influence of temperature and humidity on Form stability.

[3] = Kinetic solubility measurement in pure water; format: physicochemical; settings: for pH: pH of the aqueous solubility sample; for Aqueous solubility: pure water, ambient room temperature, 20 minutes, expressed as free base
Procedure: Typically 1-5 mg of samples were diluted to 10 mL with sample solvent (1:1 (v:v) Mobile phase A:Mobile phase B) and the assay concentrations were determined from an average of duplicate injections using the following HPLC method. The purity and impurity analyses are done using conventional HPLC.
The free base and the salts listed in the table below were added in excess (saturation) to water in a 2.0 mL glass vial. The samples were put on an end-to-end rotator (50 rpm) at ambient room temperature up to 20 minutes. After 20 minutes, a sampling was taken for HPLC analysis.

[4] = Solubility of Form A0 in organic solvents at the boiling point; format: physicochemical; settings: for solubility: organic solvent or mixture, thermodynamic from solid, read-out: Solubility Estimate at The Boiling Point
Procedure: The following procedure was used to assess the solubility of the anhydrous free base of Compound I (Form A0) in a range of nine organic solvents listed in Table 3. Using 1.8 mL HPLC vials, approximately 10 mg of Form A0 was stirred at the boiling point in 200 μL of nine different solvents. […] The additions were stopped when the solid dissolved or when 1000 μL had been dispensed. […] Methyl t-butyl ether was chosen as an anti-solvent (<10 mg/mL).

BRAF V600E [5] = target: T1, BRAF V600E (Homo sapiens, UniProt P15056, V600E); experiment: BRAF V600E inhibition in intact cells; format: cell-based; settings: in vitro
T1 sequence (P15056 whole entry V600E): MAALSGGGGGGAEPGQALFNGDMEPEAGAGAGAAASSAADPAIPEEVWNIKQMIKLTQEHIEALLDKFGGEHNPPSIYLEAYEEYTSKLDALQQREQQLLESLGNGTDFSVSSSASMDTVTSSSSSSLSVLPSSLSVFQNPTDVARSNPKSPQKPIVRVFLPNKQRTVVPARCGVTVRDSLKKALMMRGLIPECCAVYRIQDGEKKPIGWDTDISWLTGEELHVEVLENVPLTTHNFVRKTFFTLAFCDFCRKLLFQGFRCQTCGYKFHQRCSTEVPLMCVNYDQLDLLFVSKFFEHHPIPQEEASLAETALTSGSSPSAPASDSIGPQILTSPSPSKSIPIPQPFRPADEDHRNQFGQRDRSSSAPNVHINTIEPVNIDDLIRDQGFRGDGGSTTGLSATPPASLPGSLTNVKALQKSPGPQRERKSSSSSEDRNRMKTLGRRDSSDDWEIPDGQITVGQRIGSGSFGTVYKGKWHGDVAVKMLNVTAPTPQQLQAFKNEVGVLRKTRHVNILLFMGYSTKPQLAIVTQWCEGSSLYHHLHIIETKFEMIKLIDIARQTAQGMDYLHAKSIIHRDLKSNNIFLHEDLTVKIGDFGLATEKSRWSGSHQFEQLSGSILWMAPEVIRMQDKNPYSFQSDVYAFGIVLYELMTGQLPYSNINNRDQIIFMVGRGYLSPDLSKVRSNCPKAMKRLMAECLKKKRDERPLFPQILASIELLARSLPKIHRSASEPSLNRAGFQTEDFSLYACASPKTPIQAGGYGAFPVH

BRAF V600E [6] = target: T1, BRAF V600E; experiment: BRAF V600E inhibition in isolated systems; format: biochemical; settings: in vitro
[7] = Methyl-t-butyl Ether, 55.2 ° C.

| GVS: Percent increase in mass at 90% RH ([1]; 25° C.) [%] | XRPD after GVS analysis [1] | Area Purity ([2]; 0 days) [%] | HPLC Assay ([2]; 0 days) [%] | XRPD ([2]; 0 days) | Area Purity ([2]; 14 days) [%] | HPLC Assay ([2]; 14 days) [%] | XRPD ([2]; 14 days) | Area Purity ([2]; 28 days) [%] | HPLC Assay ([2]; 28 days) [%] | XRPD ([2]; 28 days) | solid state stability ([2]; 28 days) | pH [3] | amount of moisture adsorbed at 75% RH ([1]; 25° C.) | hygroscopicity [1] | Aqueous solubility [3] [mg/mL] | SMILES | other results |
| --- | --- | --- | --- | --- | --- | --- | --- | --- | --- | --- | --- | --- | --- | --- | --- | --- | --- |
| 1.0 | No change | – | – | – | – | – | – | – | – | – | – | 6.6 | less than 0.7% | not hygroscopic | 0.1 | COc1cc2ncnc(Oc3cccc(NC(=O)Nc4cc(C(C)(C)C(F)(F)F)on4)c3)c2cc1OC [Bromide A1] | GVS: Percent increase in mass at 90% RH ([1]; 25° C., listed as Bromide Form A1): approximately 1%; XRPD after GVS analysis ([1]; listed as Bromide Form A1): compares nicely to the pattern of the material before GVS |
| 2.7 | No change | – | – | – | – | – | – | – | – | – | – | 6.8 | less than 1.8% | not hygroscopic | 0.09 | COc1cc2ncnc(Oc3cccc(NC(=O)Nc4cc(C(C)(C)C(F)(F)F)on4)c3)c2cc1OC.O=P(O)(O)O [Phosphate A1] | GVS: Percent increase in mass at 90% RH ([1]; 25° C., listed as phosphate Form A1): approximately 2.7%; XRPD after GVS analysis ([1]; listed as phosphate Form A1): compares nicely to the pattern of the material before GVS |
| – | – | – | – | – | – | – | – | – | – | – | – | – | – | – | – | COc1cc2ncnc(Oc3cccc(NC(=O)Nc4cc(C(C)(C)C(F)(F)F)on4)c3)c2cc1OC [Compound I, 1-[3-(6,7-dimethoxy-quinazolin-4-yloxy)-phenyl]-3-[5-(2,2,2-trifluoro-1,1-dimethyl-ethyl)-isoxazol-3-yl]-urea] | inhibits BRAF V600E (BRAF V600E [5]): low nanomolar concentrations; inhibits BRAF V600E (BRAF V600E [6]): low nanomolar concentrations |
| 1.7 | No change | 99.5 | 99.9 | Form A1 | 97.6 | 98.7 | Form A1 | 96.4 | 100.4 | Form A1 | stable for 28 days | 7.3 | – | – | 0.56 | COc1cc2ncnc(Oc3cccc(NC(=O)Nc4cc(C(C)(C)C(F)(F)F)on4)c3)c2cc1OC.Cl [Chloride A1] | XRPD after GVS analysis ([1]; listed as Chloride Form A1): No form change occurred; Area Purity ([2]; 7 days): 98.7%; HPLC Assay ([2]; 7 days): 98.3%; XRPD ([2]; 7 days): Form A1; dissolution in pure water, ranking of salts ([3]; pure water (pH=7)): best salt for dissolution in pure water |
| – | No form change occurred | – | – | – | – | – | – | – | – | – | – | 6.6 | – | – | 0.07 | COc1cc2ncnc(Oc3cccc(NC(=O)Nc4cc(C(C)(C)C(F)(F)F)on4)c3)c2cc1OC.O=C(O)CC(=O)O [Malonate A1] | total uptake of water ([1]; RH range of 0-90%, 25° C.): < 4% |

| SMILES | GVS: Percent increase in mass at 90% RH ([1]; 25° C.) [%] | XRPD after GVS analysis [1] | Area Purity ([2]; 0 days) [%] | HPLC Assay ([2]; 0 days) [%] | XRPD ([2]; 0 days) | Area Purity ([2]; 14 days) [%] | HPLC Assay ([2]; 14 days) [%] | XRPD ([2]; 14 days) | Area Purity ([2]; 28 days) [%] | HPLC Assay ([2]; 28 days) [%] | XRPD ([2]; 28 days) | solid state stability ([2]; 28 days) | pH [3] | amount of moisture adsorbed at 75% RH ([1]; 25° C.) | hygroscopicity [1] | Aqueous solubility [3] [mg/mL] | other results |
| --- | --- | --- | --- | --- | --- | --- | --- | --- | --- | --- | --- | --- | --- | --- | --- | --- | --- |
| COc1cc2ncnc(Oc3cccc(NC(=O)Nc4cc(C(C)(C)C(F)(F)F)on4)c3)c2cc1OC [Form A0] | 1.3 | compares nicely to the pattern of the material before GVS | 98.3 | 100.0 | Form A0 | 98.5 | 100.5 | Form A0 | 98.2 | 102.4 | Form A0 | stable for 28 days | 7.4 | – | – | – | XRPD after GVS analysis ([1]; listed as A0): No change; moisture uptake ([1]; from 40 to about 90% RH): less than 1.3 % (w/w); Area Purity ([2]; 6 days): 98.5%; HPLC Assay ([2]; 6 days): 102.3%; XRPD ([2]; 6 days): Form A0; Aqueous solubility ([3]; listed as Free base A0): <0.01 mg/mL; Solubility Estimate at The Boiling Point [4, 7]: <10 mg/mL; solubility ([4]; Acetone, 56.5 ° C.): > 50 mg/mL; solubility ([4]; Acetonitrile, 82.0 ° C.): < 20 mg/mL; solubility ([4]; Chloroform, 61.2 ° C.): > 50 mg/mL; solubility ([4]; Dichloromethane, 40.0 ° C.): > 20 mg/mL; solubility ([4]; Ethyl Acetate, 77.1 ° C.): < 30 mg/mL; solubility ([4]; Methanol, 64.7 ° C.): < 20 mg/mL; solubility [4, 7]: < 10 mg/mL; solubility ([4]; Tetrahydrofuran, 66.0 ° C.): > 50 mg/mL; solubility ([4]; Toluene, 110.6 ° C.): < 30 mg/mL |
